Target: SidJ∆N99-CaM (Legionella pneumophila, UniProt Q5ZTK6)
Sequence (Q5ZTK6 whole entry, looked up): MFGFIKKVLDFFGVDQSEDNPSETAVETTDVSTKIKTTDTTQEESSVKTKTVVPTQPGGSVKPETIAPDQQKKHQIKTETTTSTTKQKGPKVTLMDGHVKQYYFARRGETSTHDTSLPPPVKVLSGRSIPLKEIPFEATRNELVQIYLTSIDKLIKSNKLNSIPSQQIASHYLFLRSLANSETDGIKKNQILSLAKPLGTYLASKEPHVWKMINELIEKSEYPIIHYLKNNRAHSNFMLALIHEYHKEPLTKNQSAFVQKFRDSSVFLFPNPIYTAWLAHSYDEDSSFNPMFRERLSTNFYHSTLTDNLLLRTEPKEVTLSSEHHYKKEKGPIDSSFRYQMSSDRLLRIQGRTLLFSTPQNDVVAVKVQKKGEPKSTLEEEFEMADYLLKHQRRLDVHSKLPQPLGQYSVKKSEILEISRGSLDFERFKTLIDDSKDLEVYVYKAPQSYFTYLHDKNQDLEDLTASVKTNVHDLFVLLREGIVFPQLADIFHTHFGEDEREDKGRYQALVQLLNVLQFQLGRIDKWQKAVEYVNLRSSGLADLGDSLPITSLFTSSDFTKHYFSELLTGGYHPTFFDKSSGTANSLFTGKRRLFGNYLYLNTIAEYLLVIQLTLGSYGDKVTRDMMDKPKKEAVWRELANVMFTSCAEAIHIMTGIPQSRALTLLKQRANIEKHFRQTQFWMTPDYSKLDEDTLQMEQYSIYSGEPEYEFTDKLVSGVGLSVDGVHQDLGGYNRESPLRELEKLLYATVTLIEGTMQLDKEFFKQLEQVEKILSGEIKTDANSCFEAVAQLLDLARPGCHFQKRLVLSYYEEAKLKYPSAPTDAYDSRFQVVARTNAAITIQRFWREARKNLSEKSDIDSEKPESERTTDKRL

Nc1ncnc2c1ncn2[C@@H]1O[C@H](COP(=O)(O)O)[C@@H](O)[C@H]1O [AMP]
X-ray crystal structure, 3.11 Å: We observed an AMP moiety bound in a pocket formed in the CD
